Assay results as given in paper PMC5522996, “Big conductance calcium‐activated potassium channel openers control spasticity without sedation” (British Journal of Pharmacology, 2017).

Assays:
CYP450 3A7 = CYP450 3A7 (Homo sapiens, UniProt P24462)
Na+-Ca2+ exchanger = experiment: Receptor binding profile of VSN16R; design: species or system human; settings: 10µM VSN16R
CB1 = target: T1, CB1 (Homo sapiens, UniProt P21554); experiment: Receptor binding profile of VSN16R
T1 construct: purchased Cerep; Chantest; DiscoveRx; Multispan; MDS Pharma Services

rabbits = experiment: Reproductive toxicology in rabbits; assay type: in vivo, rabbit
Description: Twenty‐eight day toxicology in rats and dogs for Investigational New Drug filing was performed by Charles Rivers (UK). Reproductive toxicology in rabbits was performed by Charles Rivers (Canada). Pharmacokinetic and/or toxicological doses ranged from 5 to 1000 mg·kg^−1 p.o. in Sprague Dawley male and female rats (n = 6‐26 per group), 50–200 mg·kg^−1 p.o. in male and female Beagle dogs (n = 6 per group) and 100–750 mg·kg^−1 p.o. in female New Zealand white rabbits (n = 9 per group). Results are expressed as mean ± SD.

D2S = target: T2, D2S (Homo sapiens, UniProt P14416); experiment: Receptor binding profile of VSN16R; settings: 10µM VSN16R
T2 construct: purchased Cerep; Chantest; DiscoveRx; Multispan; MDS Pharma Services

5-HT1A = target: T3, 5-HT1A (Homo sapiens, UniProt P08908); experiment: Receptor binding profile of VSN16R; settings: 10µM VSN16R
T3 construct: purchased Cerep; Chantest; DiscoveRx; Multispan; MDS Pharma Services

K+V channel = experiment: Receptor binding profile of VSN16R; design: species or system human; settings: 10µM VSN16R
CB2 = target: T4, CB2 (Homo sapiens, UniProt P34972); experiment: Receptor binding profile of VSN16R
T4 construct: purchased Cerep; Chantest; DiscoveRx; Multispan; MDS Pharma Services

[1] = target: T5, hCB2 Receptor (CHO-K1.CNR2) (Homo sapiens, UniProt P34972); experiment: GTPγS Binding assay, CHO-K1.CNR2; assay type: biochemical; settings: max. tested 10μM
T5 construct: expressed in transfected cells; host or cells: CHO-K1

5-HT6 = target: T6, 5-HT6 (Homo sapiens, UniProt P50406); experiment: Receptor binding profile of VSN16R; settings: 10µM VSN16R
T6 construct: purchased Cerep; Chantest; DiscoveRx; Multispan; MDS Pharma Services

WP2uvvA = experiment: Bacterial reverse mutation, revertants per plate; assay type: cell-based, Escherichia coli
Description: (§1) Strain of Organism Treatment Dose Revertants per plate
(§2) First Mutation without Metabolic Stimulation
(§3) Second Mutation without Metabolic Stimulation
(§4) VSN16R was incubated at various concentrations with either TA1535, TA1537, TA98 and TA100 strains of Salmonella typhimurium, which carry mutations in genes involved in histidine synthesis, and WP2uvvA Escherichia coli. The bacteria are spread on agar plates with limiting histidine content and incubated for 48 h. The number of histidine gene negative to positive revertants was assessed in two experiments. The results represent the mean ± SD. n=3/group. This was performed by Charles

TA1537 = experiment: Bacterial reverse mutation, revertants per plate; assay type: cell-based, Salmonella typhimurium
Description: as §1, §2, §3, §4

TA1535 = experiment: Bacterial reverse mutation, revertants per plate; assay type: cell-based, Salmonella typhimurium
Description: as §1, §2, §3, §4

TA98 = experiment: Bacterial reverse mutation, revertants per plate; assay type: cell-based, Salmonella typhimurium
Description: as §1, §2, §3, §4

TA100 = experiment: Bacterial reverse mutation, revertants per plate; assay type: cell-based, Salmonella typhimurium
Description: as §1, §2, §3, §4

Y1 = target: T7, Y1 (Homo sapiens, UniProt P25929); experiment: Receptor binding profile of VSN16R; settings: 10µM VSN16R
T7 construct: purchased Cerep; Chantest; DiscoveRx; Multispan; MDS Pharma Services

[2] = target: CYP450 1A2 (Homo sapiens)
Description: IC50 Inhibition of substrate binding
(§5) Inhibition of binding of either 3-cyano-7-ethoxycoumarin, dibenzylfluorescein or 7-benzyoxy-4-
(§6) (trifluoromethyl) coumarin in human enzyme transfected BTI NN-5B1-4 cells or Sf9 insect cells or
(§7) inhibition of dextromethorphan substrate to CYP450 2D6 in liver microsomes.

GPR6 = target: T8, GPR6 (Homo sapiens, UniProt P46095); experiment: Receptor binding profile of VSN16R; settings: 10µM VSN16R
T8 construct: purchased Cerep; Chantest; DiscoveRx; Multispan; MDS Pharma Services

GPR12 = target: T9, GPR12 (Homo sapiens, UniProt P47775); experiment: Receptor binding profile of VSN16R; settings: 10µM VSN16R
T9 construct: purchased Cerep; Chantest; DiscoveRx; Multispan; MDS Pharma Services

Y2 = target: T10, Y2 (Homo sapiens, UniProt P49146); experiment: Receptor binding profile of VSN16R; settings: 10µM VSN16R
T10 construct: purchased Cerep; Chantest; DiscoveRx; Multispan; MDS Pharma Services

rat mesenteric artery = experiment: Methoxamine‐evoked contraction of rat mesenteric artery; assay type: cell-based
Description: Vessels were equilibrated and set to a basal tension of 2 to 2.5 mN. The integrity of the endothelium was assessed by pre‐contracting the vessel with 10 μM methoxamine (an α1‐adrenoceptor agonist), followed by relaxation with 10 μM carbachol (a muscarinic acetylcholine receptor agonist); vessels showing relaxations of greater than 90% were designated as endothelium‐intact. When the endothelium was not required, it was removed by rubbing the intima with a human hair; carbachol‐induced relaxation of less than 10% indicated successful removal. After the test for endothelial integrity, vessels were left for 30 min and then pre‐contracted with 10 μM methoxamine. This was followed by construction of a cumulative concentration–relaxation curve to VSN16R (10 nM–1 μM). […] Most experiments were performed in matched vessels; effects of blockers or endothelial removal were compared with the control responses obtained in separate vessels of the same rats. All relaxant responses are expressed as percentage relaxation of the tone induced by methoxamine. Values are given as mean ± SEM. Statistical comparisons of concentration‐dependent responses were made by two‐way ANOVA using Prism 4 (GraphPad Software, Inc, San Diego, CA, USA).

CYP450 2A6 = CYP450 2A6 (Homo sapiens, UniProt P11509); experiment: CYP450 inhibition of substrate binding
Description: IC50 Inhibition of substrate binding
as §5, §6, §7

EDG4 = target: T11, EDG4 (Homo sapiens, UniProt Q9HBW0); experiment: Receptor binding profile of VSN16R; settings: 10µM VSN16R
T11 construct: purchased Cerep; Chantest; DiscoveRx; Multispan; MDS Pharma Services

SK+Ca channel (KCNN2) = target: T12, SK+Ca channel (KCNN2) (Homo sapiens, UniProt Q9H2S1); experiment: Receptor binding profile of VSN16R
T12 construct: purchased Cerep; Chantest; DiscoveRx; Multispan; MDS Pharma Services

EDG3 = target: T13, EDG3 (Homo sapiens, UniProt Q99500); experiment: Receptor binding profile of VSN16R; settings: 10µM VSN16R
T13 construct: purchased Cerep; Chantest; DiscoveRx; Multispan; MDS Pharma Services

[3] = First Mutation without Metabolic Stimulation, 17µg
[4] = First Mutation without Metabolic Stimulation, 5000µg
[5] = Second Mutation without Metabolic Stimulation, 17µg
[6] = Second Mutation without Metabolic Stimulation, 5000µg

T1 sequence (P21554 whole entry): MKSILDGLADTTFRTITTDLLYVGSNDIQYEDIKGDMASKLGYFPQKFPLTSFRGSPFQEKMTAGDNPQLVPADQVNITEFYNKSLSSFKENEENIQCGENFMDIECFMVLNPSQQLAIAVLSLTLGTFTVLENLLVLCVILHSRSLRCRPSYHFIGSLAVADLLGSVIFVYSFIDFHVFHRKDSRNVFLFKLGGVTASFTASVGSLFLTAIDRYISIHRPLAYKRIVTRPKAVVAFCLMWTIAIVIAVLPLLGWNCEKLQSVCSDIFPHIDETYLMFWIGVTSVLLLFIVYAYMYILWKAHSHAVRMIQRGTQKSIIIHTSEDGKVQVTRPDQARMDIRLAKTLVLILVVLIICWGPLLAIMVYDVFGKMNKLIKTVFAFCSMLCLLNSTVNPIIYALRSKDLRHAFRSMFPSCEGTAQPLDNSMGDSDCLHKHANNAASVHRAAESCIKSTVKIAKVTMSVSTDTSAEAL
T4 sequence (P34972 whole entry): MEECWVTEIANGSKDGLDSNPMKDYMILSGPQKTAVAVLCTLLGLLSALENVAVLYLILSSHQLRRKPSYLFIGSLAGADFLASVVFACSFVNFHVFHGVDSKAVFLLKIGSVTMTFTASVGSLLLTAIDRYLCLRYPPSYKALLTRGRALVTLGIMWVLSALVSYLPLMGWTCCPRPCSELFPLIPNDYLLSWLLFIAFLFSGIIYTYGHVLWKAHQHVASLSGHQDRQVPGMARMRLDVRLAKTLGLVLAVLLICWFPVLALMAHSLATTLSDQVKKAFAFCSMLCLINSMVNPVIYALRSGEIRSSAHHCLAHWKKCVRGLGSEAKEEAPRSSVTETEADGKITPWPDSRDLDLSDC
Sequence of CYP450 3A7 (P24462 whole entry): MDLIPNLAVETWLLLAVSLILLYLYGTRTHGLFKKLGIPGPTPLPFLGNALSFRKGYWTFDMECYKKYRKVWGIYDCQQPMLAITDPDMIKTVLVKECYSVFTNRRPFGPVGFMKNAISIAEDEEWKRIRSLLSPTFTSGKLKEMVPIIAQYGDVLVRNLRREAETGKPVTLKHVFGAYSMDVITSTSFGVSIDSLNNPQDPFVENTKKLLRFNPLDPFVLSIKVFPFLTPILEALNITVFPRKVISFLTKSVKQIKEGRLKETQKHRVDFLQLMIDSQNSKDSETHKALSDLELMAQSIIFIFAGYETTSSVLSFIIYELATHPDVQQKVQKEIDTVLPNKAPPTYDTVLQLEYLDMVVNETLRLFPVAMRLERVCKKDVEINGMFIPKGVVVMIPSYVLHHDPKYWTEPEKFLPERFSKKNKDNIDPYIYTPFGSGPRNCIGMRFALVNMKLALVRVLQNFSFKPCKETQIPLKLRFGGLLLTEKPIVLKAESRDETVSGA
T11 sequence (Q9HBW0 whole entry): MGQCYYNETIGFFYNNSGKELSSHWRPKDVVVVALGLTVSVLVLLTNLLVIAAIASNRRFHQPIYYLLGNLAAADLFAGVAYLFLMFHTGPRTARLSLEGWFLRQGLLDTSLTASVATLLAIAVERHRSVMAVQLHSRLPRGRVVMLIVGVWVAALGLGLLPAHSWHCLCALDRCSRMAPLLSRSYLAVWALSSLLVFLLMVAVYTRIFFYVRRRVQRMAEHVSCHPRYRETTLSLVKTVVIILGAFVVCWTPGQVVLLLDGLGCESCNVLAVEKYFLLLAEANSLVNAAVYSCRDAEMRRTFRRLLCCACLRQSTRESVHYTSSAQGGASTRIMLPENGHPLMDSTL
T2 sequence (P14416 1-414 isoform P14416-2): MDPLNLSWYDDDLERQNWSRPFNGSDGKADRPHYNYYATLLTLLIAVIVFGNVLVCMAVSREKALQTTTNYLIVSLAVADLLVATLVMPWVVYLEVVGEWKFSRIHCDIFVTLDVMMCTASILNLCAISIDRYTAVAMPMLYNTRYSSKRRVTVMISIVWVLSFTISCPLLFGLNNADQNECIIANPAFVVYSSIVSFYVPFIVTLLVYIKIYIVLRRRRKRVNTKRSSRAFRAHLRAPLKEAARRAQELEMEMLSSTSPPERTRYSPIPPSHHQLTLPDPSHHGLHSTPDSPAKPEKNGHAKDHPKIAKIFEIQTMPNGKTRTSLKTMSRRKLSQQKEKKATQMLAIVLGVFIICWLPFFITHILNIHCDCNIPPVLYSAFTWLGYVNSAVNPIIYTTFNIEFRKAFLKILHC
Sequence of CYP450 1A2 (Homo sapiens) (P11511 whole entry): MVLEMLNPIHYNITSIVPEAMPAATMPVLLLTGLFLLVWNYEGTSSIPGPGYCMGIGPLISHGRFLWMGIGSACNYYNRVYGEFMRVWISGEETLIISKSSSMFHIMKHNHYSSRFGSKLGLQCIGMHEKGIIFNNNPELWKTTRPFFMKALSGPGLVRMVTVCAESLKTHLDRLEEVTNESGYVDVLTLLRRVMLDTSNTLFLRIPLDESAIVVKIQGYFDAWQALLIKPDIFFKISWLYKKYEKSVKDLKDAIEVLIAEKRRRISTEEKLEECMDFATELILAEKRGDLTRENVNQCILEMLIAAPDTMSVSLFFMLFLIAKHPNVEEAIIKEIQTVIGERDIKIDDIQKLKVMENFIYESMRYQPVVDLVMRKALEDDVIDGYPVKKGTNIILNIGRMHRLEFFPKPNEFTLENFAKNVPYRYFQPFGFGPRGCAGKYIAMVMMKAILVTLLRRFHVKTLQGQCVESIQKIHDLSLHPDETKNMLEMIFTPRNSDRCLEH
T9 sequence (P47775 whole entry): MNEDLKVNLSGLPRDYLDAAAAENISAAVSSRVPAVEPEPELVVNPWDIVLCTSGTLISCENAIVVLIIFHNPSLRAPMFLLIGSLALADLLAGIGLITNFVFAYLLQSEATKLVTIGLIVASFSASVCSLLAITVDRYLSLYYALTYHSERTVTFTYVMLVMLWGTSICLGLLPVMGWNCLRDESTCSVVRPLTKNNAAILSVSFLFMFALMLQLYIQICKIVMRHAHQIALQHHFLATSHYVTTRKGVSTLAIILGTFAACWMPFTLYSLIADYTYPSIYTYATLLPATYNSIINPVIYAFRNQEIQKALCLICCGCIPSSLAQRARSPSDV
T13 sequence (Q99500 whole entry): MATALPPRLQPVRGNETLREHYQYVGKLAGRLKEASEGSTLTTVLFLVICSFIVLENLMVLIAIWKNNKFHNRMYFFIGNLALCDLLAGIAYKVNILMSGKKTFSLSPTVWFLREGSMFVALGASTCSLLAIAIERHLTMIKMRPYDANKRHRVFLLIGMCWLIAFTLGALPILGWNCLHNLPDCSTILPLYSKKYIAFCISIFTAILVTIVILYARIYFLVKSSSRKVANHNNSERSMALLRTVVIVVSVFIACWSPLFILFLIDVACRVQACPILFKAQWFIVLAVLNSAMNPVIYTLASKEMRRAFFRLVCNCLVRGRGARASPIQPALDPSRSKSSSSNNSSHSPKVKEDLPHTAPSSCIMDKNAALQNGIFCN
T10 sequence (P49146 whole entry): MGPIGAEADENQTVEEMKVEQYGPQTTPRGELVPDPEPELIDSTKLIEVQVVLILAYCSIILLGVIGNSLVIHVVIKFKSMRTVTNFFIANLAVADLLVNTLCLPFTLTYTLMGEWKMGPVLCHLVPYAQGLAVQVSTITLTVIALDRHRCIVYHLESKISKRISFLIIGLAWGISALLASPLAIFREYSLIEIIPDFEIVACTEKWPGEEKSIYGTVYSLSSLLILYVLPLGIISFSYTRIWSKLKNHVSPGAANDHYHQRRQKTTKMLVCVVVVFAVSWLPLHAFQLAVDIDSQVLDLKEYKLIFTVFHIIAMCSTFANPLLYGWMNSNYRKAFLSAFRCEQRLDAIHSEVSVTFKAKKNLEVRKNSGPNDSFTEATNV
T6 sequence (P50406 whole entry): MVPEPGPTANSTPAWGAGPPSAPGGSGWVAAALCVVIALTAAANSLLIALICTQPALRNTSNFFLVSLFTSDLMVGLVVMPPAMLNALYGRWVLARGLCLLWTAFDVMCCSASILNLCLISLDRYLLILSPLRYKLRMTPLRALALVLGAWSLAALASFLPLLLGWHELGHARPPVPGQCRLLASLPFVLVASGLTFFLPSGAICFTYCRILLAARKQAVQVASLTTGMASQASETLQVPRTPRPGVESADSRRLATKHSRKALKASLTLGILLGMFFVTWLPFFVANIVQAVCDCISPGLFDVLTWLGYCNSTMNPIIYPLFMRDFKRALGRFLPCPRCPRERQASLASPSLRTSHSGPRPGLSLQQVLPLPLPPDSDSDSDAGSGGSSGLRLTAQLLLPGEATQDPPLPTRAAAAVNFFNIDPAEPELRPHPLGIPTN
T3 sequence (P08908 whole entry): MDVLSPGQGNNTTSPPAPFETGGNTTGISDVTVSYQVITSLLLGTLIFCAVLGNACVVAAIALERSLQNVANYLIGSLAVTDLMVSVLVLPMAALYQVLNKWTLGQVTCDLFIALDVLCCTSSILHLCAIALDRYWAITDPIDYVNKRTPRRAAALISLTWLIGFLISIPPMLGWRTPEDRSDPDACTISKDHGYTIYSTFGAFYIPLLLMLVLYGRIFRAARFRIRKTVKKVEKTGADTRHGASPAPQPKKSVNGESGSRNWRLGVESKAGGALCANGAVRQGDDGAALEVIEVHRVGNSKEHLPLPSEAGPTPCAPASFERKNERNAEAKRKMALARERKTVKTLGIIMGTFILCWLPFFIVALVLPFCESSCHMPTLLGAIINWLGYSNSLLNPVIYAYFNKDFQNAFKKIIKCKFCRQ
T8 sequence (P46095 whole entry): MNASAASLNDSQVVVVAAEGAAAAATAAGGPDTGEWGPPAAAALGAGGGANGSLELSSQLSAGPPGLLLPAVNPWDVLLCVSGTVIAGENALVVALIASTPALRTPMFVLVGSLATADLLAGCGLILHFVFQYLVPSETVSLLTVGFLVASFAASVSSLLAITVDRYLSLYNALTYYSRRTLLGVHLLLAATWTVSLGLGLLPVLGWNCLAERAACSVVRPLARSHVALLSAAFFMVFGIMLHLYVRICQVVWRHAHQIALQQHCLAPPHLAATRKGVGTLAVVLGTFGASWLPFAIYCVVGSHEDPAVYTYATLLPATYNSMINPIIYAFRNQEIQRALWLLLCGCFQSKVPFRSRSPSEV

`C[C@H](CO)NC(=O)c1cccc(/C=C\CCCC(=O)N(C)C)c1` [VSN16R] was tested, and the IC50 (CYP450 3A7) was greater than 10 µM, the Activity (Na+-Ca2+ exchanger) was “Negligible Activity” and the Activity (CB1; 10µM VSN16R) was “Negligible Activity”. The “Binding or agonism at CB1 receptors” value (CB1; receptor‐transfected cell line‐based assays) was “does not bind to or agonize”, the “Reproductive toxicology safe level” value (rabbits) was greater than 500 mg·kg^−1 and the Activity (D2S) was “Negligible Activity”. The Activity (5-HT1A) was “Negligible Activity”, the Activity (K+V channel) was “Negligible Activity” and the Activity (CB2; 10µM VSN16R) was “Negligible Activity”. For the same compound, the “Binding to CB2 receptors” value (CB2; tested to 10 μM) was “did not bind”, the “Activity of VSN16R (Max. Tested)” value [1] was “No Activity” and the Activity (5-HT6) was “Negligible Activity”. The Revertants per plate (WP2uvvA; [3]) was 5.3 ± 0.6, the Revertants per plate (WP2uvvA; [4]) was 1.3 ± 1.2 and the Revertants per plate (WP2uvvA; [5]) was 10.3 ± 6.7. The Revertants per plate (WP2uvvA; [6]) was 8.0 ± 4.6, the Revertants per plate (TA1537; [3]) was 13.3 ± 1.5 and the Revertants per plate (TA1537; [4]) was 7.0 ± 1.7. The Revertants per plate (TA1537; [5]) was 12.3 ± 2.9, the Revertants per plate (TA1537; [6]) was 10.3 ± 2.9 and the Revertants per plate (TA1535; [3]) was 9.0 ± 6.6. The Revertants per plate (TA1535; [4]) was 13.7 ± 2.1, the Revertants per plate (TA1535; [5]) was 14.0 ± 5.6 and the Revertants per plate (TA1535; [6]) was 11.3 ± 3.5. It also gave a Revertants per plate (TA98; [3]) of 15.3 ± 4.7, a Revertants per plate (TA98; [4]) of 18.3 ± 7.1 and a Revertants per plate (TA98; [5]) of 23.3 ± 1.2. It also gave a Revertants per plate (TA98; [6]) of 23.7 ± 1.2, a Revertants per plate (TA100; [3]) of 79.3 ± 7.6 and a Revertants per plate (TA100; [4]) of 79.3 ± 5.5. For the same compound, the Revertants per plate (TA100; [5]) was 85.7 ± 6.7, the Revertants per plate (TA100; [6]) was 99.3 ± 5.5 and the Activity (Y1) was “Negligible Activity”. The IC50 [2] was greater than 10 µM, the Activity (GPR6) was “Negligible Activity” and the Activity (GPR12) was “Negligible Activity”. The Activity (Y2) was “Negligible Activity”, the “Relaxation in the presence of extracellular KCl” value (rat mesenteric artery; 60 mM KCl) was “produced no relaxation” and the Vasorelaxation (rat mesenteric artery; endothelium intact vs denuded) was “significant vasorelaxation in an endothelium‐dependent manner”. The IC50 (CYP450 2A6) was greater than 10 µM, the Activity (EDG4) was “Negligible Activity” and the Activity (SK+Ca channel (KCNN2); 10µM VSN16R) was “Negligible Activity”. The “Block of apamin binding to KCa2.2 channels” value (SK+Ca channel (KCNN2); transfected cells) was “failed to block the binding of apamin” and the Activity (EDG3) was “Negligible Activity”.
